The values that follow come from publication PMC4287973, “Tumor cell-specific inhibition of MYC function using small molecule inhibitors of the HUWE1 ubiquitin ligase” (EMBO Molecular Medicine, 2014).

The target of data set [1] is T1, WWP1 (Homo sapiens, UniProt Q9H0M0).
T1 construct: HECT-domains of multiple ligases auto-ubiquitinate in in vitro assays containing both UBA1 and UbcH5b
The data set can be described thus: in vitro HECT-domain auto-ubiquitination assay, WWP1. It is filed as biochemical.

For data set [2], the target named is T2, UBE3A (Homo sapiens, UniProt Q05086).
T2 construct: HECT-domains of multiple ligases auto-ubiquitinate in in vitro assays containing both UBA1 and UbcH5b
T2 sequence (Q05086 518-875 limits assumed): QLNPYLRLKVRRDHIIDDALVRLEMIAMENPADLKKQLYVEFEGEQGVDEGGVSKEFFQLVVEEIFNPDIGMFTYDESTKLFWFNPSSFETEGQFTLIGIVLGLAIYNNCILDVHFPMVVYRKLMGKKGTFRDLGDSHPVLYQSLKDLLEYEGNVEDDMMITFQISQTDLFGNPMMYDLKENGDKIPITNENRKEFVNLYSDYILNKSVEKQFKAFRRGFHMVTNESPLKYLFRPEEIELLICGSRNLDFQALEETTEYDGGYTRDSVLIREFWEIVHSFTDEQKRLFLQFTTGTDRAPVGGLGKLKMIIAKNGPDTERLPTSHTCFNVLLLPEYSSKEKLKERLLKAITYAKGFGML
The data set is described as follows: in vitro HECT-domain auto-ubiquitination assay, UBE3A. It is filed as biochemical.

The target of data set [3] is T3, SMURF1 (Homo sapiens, UniProt Q9HCE7).
T3 construct: HECT-domains of multiple ligases auto-ubiquitinate in in vitro assays containing both UBA1 and UbcH5b
T3 sequence (Q9HCE7 420-757 limits assumed, species assumed): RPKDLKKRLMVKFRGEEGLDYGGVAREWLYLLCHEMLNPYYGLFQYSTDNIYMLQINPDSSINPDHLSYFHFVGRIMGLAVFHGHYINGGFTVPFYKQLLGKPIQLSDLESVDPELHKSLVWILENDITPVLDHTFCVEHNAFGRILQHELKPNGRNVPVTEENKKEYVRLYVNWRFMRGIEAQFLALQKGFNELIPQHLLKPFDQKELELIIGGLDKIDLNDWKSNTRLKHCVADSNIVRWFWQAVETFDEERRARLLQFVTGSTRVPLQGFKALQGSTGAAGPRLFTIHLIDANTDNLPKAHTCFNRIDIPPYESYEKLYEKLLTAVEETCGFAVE
The data set is described as follows: in vitro HECT-domain auto-ubiquitination assay, SMURF1. It is filed as biochemical.

Data set [4] deals with crypt cultures of normal intestinal epithelial cells. The data set is described as follows: Survival and viability of intestinal crypt (organoid) cultures. To be noted: for fraction of individual crypts that died: long-term incubation of primary crypt cultures.
Procedure: Murine intestinal crypt cultures were established from wild-type mice of a mixed background (50% C57Bl6J, 50% S129) as previously described (Sato et al, [2009]). Briefly, intestines were isolated and flushed with PBS. Villi were removed by scraping and remaining tissue cut and washed with PBS. Crypt extraction was carried out in PBS + 2 mM EDTA for 30 min at 4 °C. Isolated crypts were washed with PBS and plated in growth factor reduced Matrigel (BD Biosciences). Crypts were grown in Advanced DMEM (Invitrogen) supplemented with N2 (Invitrogen), B27 (Invitrogen), EGF (Peprotech), Noggin (Peprotech), and R-spondin (Peprotech). Media were replaced every 2 days and crypts passaged weekly. […] Organoid survival was scored at this point based on their microscopic appearance. Cell viability was also determined using a CellTiter-Blue Cell Viability Assay (Promega) according to the manufacturer's instructions.
end of the experiment, the number of life crypts was counted by visual inspection.
Data set [5] concerns the target T4, HERC1 (Homo sapiens, UniProt Q15751).
T4 construct: HECT-domains of multiple ligases auto-ubiquitinate in in vitro assays containing both UBA1 and UbcH5b
T4 sequence (Q15751 4501-4848 limits assumed): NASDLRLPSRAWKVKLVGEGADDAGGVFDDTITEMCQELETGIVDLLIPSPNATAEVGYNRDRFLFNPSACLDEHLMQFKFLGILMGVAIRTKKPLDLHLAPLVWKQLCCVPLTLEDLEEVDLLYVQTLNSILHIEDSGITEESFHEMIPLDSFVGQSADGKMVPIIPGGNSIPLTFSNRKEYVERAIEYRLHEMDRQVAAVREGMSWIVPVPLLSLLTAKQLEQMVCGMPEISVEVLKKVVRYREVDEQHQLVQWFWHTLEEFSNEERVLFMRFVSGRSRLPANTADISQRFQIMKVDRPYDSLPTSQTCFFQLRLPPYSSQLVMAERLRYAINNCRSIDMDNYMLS
The data set can be described thus: in vitro HECT-domain auto-ubiquitination assay, HERC1. It is filed as biochemical.

The subject of data set [6] is MYC target gene sets in Ls174T cells. The data set is described as follows: Microarray gene expression and GSEA in Ls174T cells. To be noted: for number of genes downregulated (microarray) / number of genes upregulated (microarray): Ls174T, 24 h, cut-off fold change 2, P < 0.01. In kind it is cell-based, human. How it is done: Finally, shRNA-mediated depletion of p53 (Supplementary Fig S8, upper panel) had no effect on regulation of MYC target genes by either compound (Supplementary Fig S8, lower panel). Collectively, the data establish that these compounds block MYC-dependent transcriptional activation via inhibition of HUWE1 in colon cancer cells.
Control or HUWE1-depleted Ls174T cells were treated with HUWE1 inhibitors or DMSO as control for 24 h. Expression of different MYC-induced target genes was analyzed by RQ–PCR. Error bars show SD of triplicate technical assays from one representative experiment (n = 5). • Time-dependent expression of the differentiation marker MUC2 upon HUWE1 inhibition. Ls174T cells were treated with HUWE1 inhibitors for the indicated times. Error bars show SD of triplicate technical assays from one representative experiment (n = 3). • Gene set enrichment analysis (GSEA) of gene expression changes upon HUWE1 inhibition. Ls174T cells were treated for 24 h with either HUWE1 inhibitor or DMSO as control. RNA was isolated and subjected to a microarray and gene set enrichment analysis. […] P-values were calculated using a test for hypergeometric distribution. • Heat map comparing gene expression after HUWE1 depletion to treatment with HUWE1 inhibitors. The left panel summarizes expression of all genes (n = 10,452) ordered according to their expression after HUWE1 knockdown. […] MYC binding data were taken from HeLa cells. […] The upper panels display examples of MYC-activated gene sets and their response to inhibition of HUWE1.
Microarray analyses were performed on a 44K Whole Human Genome Array (G4845A 026652, Agilent), and raw data were generated with the Feature Extraction software v10.1.1.1 (Agilent).
The P-value was calculated using a one-sample two-tailed Student's t-test with μ = 0. Gene set enrichment analysis (GSEA) was performed using default settings and the C2 gene sets from the MSigDB (www.broadinstitute.org/gsea/msigdb). To compare two GSEA, the normalized enrichment scores (NES) for all repressed gene sets were plotted and gene sets containing > 25% ribosomal protein genes were highlighted. Data are presented as means with standard deviation unless defined differently in the figure legends. P-values were calculated using Student's t-test.

Molecules are shown by their SMILES.

T1 sequence (Q9H0M0 588-922 limits assumed, species assumed): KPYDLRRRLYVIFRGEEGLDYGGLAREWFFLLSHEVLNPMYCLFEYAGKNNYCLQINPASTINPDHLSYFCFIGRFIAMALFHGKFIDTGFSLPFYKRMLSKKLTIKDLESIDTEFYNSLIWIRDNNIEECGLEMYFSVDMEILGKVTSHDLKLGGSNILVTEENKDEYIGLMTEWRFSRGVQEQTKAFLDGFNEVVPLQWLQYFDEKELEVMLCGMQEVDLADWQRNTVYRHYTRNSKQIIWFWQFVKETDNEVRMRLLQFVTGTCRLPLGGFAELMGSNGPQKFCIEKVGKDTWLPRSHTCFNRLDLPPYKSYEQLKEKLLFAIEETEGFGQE

As for `Cc1c(C(=O)Nc2ccc(CN)cc2)ncnc1N1CCC(C#N)(c2ccccc2)CC1` [BI8622], the IC50 in data set [1], in data set [2], in data set [3] and in data set [5] was over 50 µM throughout. Further, in data set [4] (10 µM, 24 hr), the “Ki67 staining of intestinal crypts” value was “Ki67-positive”. In addition, the “MTT assay corrected for number of live crypts” value in data set [4] (10 µM, 24 hr) is “no reduction”. Besides, in data set [4] (10 µM, 24 hr, visual inspection), the “number of live crypts, % of all crypts” value turned out to be 68%. Moreover, the “fraction of individual crypts that died” value in data set [4] is on record as “around 30%”. The “number of genes downregulated (microarray)” value in data set [6] is recorded as 2,295. Besides, in data set [6], the “number of genes upregulated (microarray)” value is recorded as 2,267. The “effect on expression of sets of MYC-activated target genes in HUWE1-depleted cells” value in data set [6] (genome-wide analysis, HUWE1-depleted Ls174T cells) is reported as “no statistically significant effect”.

With `NCc1cccc(CNc2ncnc3c(N4CCN(Cc5ccccc5)CC4)ncnc23)c1` [BI8626], the IC50 in data set [1], in data set [2], in data set [3] and in data set [5] was over 50 µM throughout. In addition, the “fraction of individual crypts that died” value in data set [4] was 60-80%. For the same molecule, the “number of genes downregulated (microarray)” value in data set [6] was 2,923. The “number of genes upregulated (microarray)” value in data set [6] is 2,796.
